The target in this experiment is T1, Human M4 mAChR (Homo sapiens, UniProt P08173).
T1 construct: host or cells: HEK293 (Sor-L9 HEK293 human/M4/GloSensor Cell Clone Number 40)
T1 sequence (P08173 1-479): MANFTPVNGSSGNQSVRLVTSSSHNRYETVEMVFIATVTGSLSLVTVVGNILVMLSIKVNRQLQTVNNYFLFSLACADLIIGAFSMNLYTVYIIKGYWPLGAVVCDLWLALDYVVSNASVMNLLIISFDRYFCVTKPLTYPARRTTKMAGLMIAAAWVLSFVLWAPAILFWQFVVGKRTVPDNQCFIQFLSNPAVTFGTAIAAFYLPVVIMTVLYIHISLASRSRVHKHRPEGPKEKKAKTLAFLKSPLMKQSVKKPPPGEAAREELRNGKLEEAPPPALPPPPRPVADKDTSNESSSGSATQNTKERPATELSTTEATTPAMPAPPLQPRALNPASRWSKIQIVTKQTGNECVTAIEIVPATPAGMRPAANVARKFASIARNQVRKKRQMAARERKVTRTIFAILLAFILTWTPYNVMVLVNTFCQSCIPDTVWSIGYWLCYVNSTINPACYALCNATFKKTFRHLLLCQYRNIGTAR
The experiment in a line: Muscarinic hM4 Agonist GloSensor cAMP Assay. It counts as cell-based. On the procedure: Muscarinic hM4 Agonist GloSensor cAMP Assay Methods
Compounds were prepared in advance of the assay. Test compounds were solubilized in 100% dimethyl sulfoxide (DMSO, Sigma D8418) to a concentration of 30 mM. A 10-point intermediate dilution series using half log dilutions was created in 100% DMSO with a top concentration of 4 mM. The serially diluted compounds were spotted as 200 nL/well in a 384-well plate (Matrix Catalog Number 4325). The final compound concentration range in the assay was […] to 0.3 nM with a final DMSO concentration of 0.25%.
Human M4 mAChR expressing stable cell lines were generated using a parental HEK cell expressing the GloSensor construct (Promega Sor-L9 HEK293 human/M4/GloSensor Cell Clone Number 40). The cells were grown in 90% Dulbecco's Modified Eagle Medium (DMEM, Gibco 11960), 10% fetal bovine serum (FBS, Hyclone CH.30160-03), 1% Penicillin/Streptomycin (Gibco 15070-063), 500 µg/mL Geneticin (Gibco 10131-027), 200 µg/mL Hygromycin B (Invitrogen 10687-010) and 1% Glutamax (Thermo Fisher 35050061).
One day prior to assay, the cells were lifted using dissociation buffer (Gibco 13151-014) and spun in a centrifuge at 250 times gravity for 5 minutes at room temperature. Supernatant was removed and the cell pellet was resuspended in growth media to a concentration of […]. Cells were then added to white poly-d-lysine coated plates (Becton Dickinson 356661) as 40 μL per well (25,000 cells) and incubated overnight (20-24 hours) in a 37° C. humidified incubator with 5% carbon dioxide (C02).
The following day, culture media was removed from the cell plates and replaced with […] equilibration medium containing 88% CO2-independent medium (Invitrogen 18045088), 10% FBS and 2% GloSensor cAMP reagent (Promega E1291) that had been warmed to 37° C. Plates were then covered and incubated for 2 hours at room temperature while protected from light.
To the previously prepared serially diluted compound plates, 200 nL of 4 mM ACh (Sigma A2661, 10 μM final) or 200 nL of 100% DMSO (0.25% final) was added to the positive and negative control wells, respectively. Compound plates were then diluted by adding 16 μL of C02-independent media containing 10% FBS and an EC80 concentration of isoproterenol (Sigma 16504). Prior to compound testing, concentration response curves were run for isoproterenol to determine the EC80 concentration. At the end of the 2 hour equilibration, 10 µL was transferred from the compound plates to the cell plates. The cell plates were incubated an additional 7 minutes at room temperature and then read using a Multi-label EnVision plate reader (Perkin Elmer) for luminescence.
The raw data, expressed as relative light units, was analyzed using Activity Base (IDBS). The percent effect at each compound concentration was calculated based on and relative to the amount of cAMP produced by the positive and negative control wells contained on each assay plate. The positive control wells contained an EC100 concentration of ACh and the negative control wells contained only DMSO. The concentration and % effect values were fit using a four-parameter logistic dose response equation, and the concentration required for 50% effect (EC50) was determined as well as the maximum asymptote of the concentration response curve to define the efficacy.

Setting [1] is: Emax: maximum asymptote of concentration response curve, relative to ACh positive control (EC100) and DMSO, geometric mean, read-out: % maximum effect.
Where [2] appears, read: HEK293 human/M4/GloSensor cells, EC80 isoproterenol, geometric mean, number of determinations in parentheses, read-out: EC50.
Setting [3] is: enantiomers reported in footnotes to Table 1, number of determinations in parentheses, read-out: M4 EC50.
The mark [4] stands for this setting: enantiomers reported in footnotes to Table 1, number of determinations in parentheses, read-out: M4 Emax.

This note sets out measurements from patent US12398119B2, “Piperazine azaspiro derivatives” (PFIZER INC., priority 2018, dated 2025).

The structures appear in SMILES notation. Read-outs that look alike come from different tables or passages of the source. A value given as a limit tells only on which side of the number the result lay.

For orientation: EC50 means the midpoint of the concentration-response curve. `CCOC(=O)N1CC2(CCC(N3CCN(c4ncccc4-c4ccc(OC)nc4)CC3)C2)C1` (stereo not drawn) [Example 38, ethyl 6-[4-(6′-methoxy-3,3′-bipyridin-2-yl)piperazin-1-yl]-2-azaspiro[3.4]octane-2-carboxylate]: the Emax under setting [1] stood at 74.7%. The EC50 under setting [2] turned out to be 1.17 nM.
The matching figures for `CCOC(=O)N1CC2(CCC(N3CCN(c4cccnc4OC(F)(F)F)CC3)C2)C1` (single isomer, unassigned) [Example 20, ethyl 6-{4-[2-(trifluoromethoxy)pyridin-3-yl]piperazin-1-yl}-2-azaspiro[3.4]octane-2-carboxylate]: 75.3% and 9.9 nM.
On to `CCOC(=O)N1CC2(CCC(N3CCN(c4nccnc4OC)CC3)C2)C1` (single isomer, unassigned) [Example 27, ethyl 6-[4-(3-methoxypyrazin-2-yl)piperazin-1-yl]-2-azaspiro[3.4]octane-2-carboxylate], for which the Emax under setting [1] is 25.1%. Also, under setting [2], the EC50 came to 11.4 nM.
The matching figures for `CCOC(=O)N1CC2(CCC(N3CCN(c4cccnc4OC4COC4)CC3)C2)C1` (stereo not drawn) [Example 25, ethyl 6-{4-[2-(oxetan-3-yloxy)pyridin-3-yl]piperazin-1-yl}-2-azaspiro[3.4]octane-2-carboxylate]: 83.1% and 5.37 nM.
Taken in the same sequence, the figures for `CCOC(=O)N1CC2(CC[C@@H](N3CCN(c4nccnc4-c4cncs4)CC3)C2)C1` [Example 11, ethyl (6R)-6-{4-[3-(1,3-thiazol-5-yl)pyrazin-2-yl]piperazin-1-yl}-2-azaspiro[3.4]octane-2-carboxylate] were 66.4% and 0.806 nM.
The matching figures for `CCOC(=O)N1CC2(CCC(N3CCN(c4ncccc4-c4ccc5nncn5c4)CC3)C2)C1` (stereo not drawn) [Example 40, ethyl 6-{4-[3-([1,2,4]triazolo[4,3-a]pyridin-6-yl)pyridin-2-yl]piperazin-1-yl}-2-azaspiro[3.4]octane-2-carboxylate]: 81.6% and 12 nM.
On to `CCOC(=O)N1CC2(CC[C@@H](N3CCN(c4nccnc4N4CCC(OC)CC4)CC3)C2)C1` [Example 43, ethyl (6R)-6-{4-[3-(4-methoxypiperidin-1-yl)pyrazin-2-yl]piperazin-1-yl}-2-azaspiro[3.4]octane-2-carboxylate], for which the Emax under setting [1] amounted to 55.5%. Besides, under setting [2], the concentration for a half-maximal effect (EC50) worked out at 1.51 nM.
In the case of `CCOC(=O)N1CC2(CCC(N3CCN(c4cccnc4OC(F)F)CC3)C2)C1` (single isomer, unassigned) [enantiomer of Example 19, ethyl 6-{4-[2-(difluoromethoxy)pyridin-3-yl]piperazin-1-yl}-2-azaspiro[3.4]octane-2-carboxylate], under setting [3], the EC50 was 201 nM. Besides, under setting [4], the Emax is 74%.
On to `CCOC(=O)N1CC2(CCC(N3CCN(c4cccnc4OC(F)(F)F)CC3)C2)C1` (single isomer, unassigned) [enantiomer of Example 20, ethyl 6-{4-[2-(trifluoromethoxy)pyridin-3-yl]piperazin-1-yl}-2-azaspiro[3.4]octane-2-carboxylate], for which the EC50 under setting [3] stood at 3600 nM. Also, under setting [4], the Emax was determined as 95.3%.
As for `CCOC(=O)N1CC2(CCC(N3CCN(c4ncccc4-c4ncco4)CC3)C2)C1` (stereo not drawn) [Example 18, ethyl 6-{4-[3-(1,3-oxazol-2-yl)pyridin-2-yl]piperazin-1-yl}-2-azaspiro[3.4]octane-2-carboxylate], the Emax under setting [1] stood at 54.9%. For the same molecule, the EC50 under setting [2] stood at 5.11 nM.
Regarding `CCOC(=O)N1CC2(CCC(N3CCN(c4ncccc4-c4cnc(O)cn4)CC3)C2)C1` (stereo not drawn) [Example 48, ethyl 6-{4-[3-(5-hydroxypyrazin-2-yl)pyridin-2-yl]piperazin-1-yl}-2-azaspiro[3.4]octane-2-carboxylate], under setting [1], the Emax was determined as 83.9%. Also, the 50% effective concentration (EC50) under setting [2] was 8.49 nM.
For `CCOC(=O)N1CC2(CCC(N3CCN(c4ncccc4-c4cccnn4)CC3)C2)C1` (stereo not drawn) [Example 45, ethyl 6-{4-[3-(pyridazin-3-yl)pyridin-2-yl]piperazin-1-yl}-2-azaspiro[3.4]octane-2-carboxylate], the Emax under setting [1] came out at 35.2%. Moreover, the EC50 under setting [2] was 8.2 nM.
As for `CCOC(=O)N1CCC2(CC(N3CCN(c4ncccc4-c4ccc(C#N)cn4)CC3)C2)C1` (single isomer, unassigned) [Example 23, ethyl 2-[4-(5-cyano-2,3′-bipyridin-2′-yl)piperazin-1-yl]-6-azaspiro[3.4]octane-6-carboxylate], the Emax under setting [1] was determined as 85%. Moreover, the EC50 under setting [2] turned out to be 143 nM.
For the molecule `CCOC(=O)N1CC2(CC[C@H](N3CCN(c4ncccc4OC)CC3)C2)C1` [Example 7, ethyl (6S)-6-[4-(3-methoxypyridin-2-yl)piperazin-1-yl]-2-azaspiro[3.4]octane-2-carboxylate], the Emax under setting [1] worked out at 47.7%. In addition, the EC50 under setting [2] stood at 425 nM.
`CCOC(=O)N1CC2(CCC(N3CCN(c4ncccc4-c4ccc5nccn5c4)CC3)C2)C1` (stereo not drawn) [Example 39, ethyl 6-{4-[3-(imidazo[1,2-a]pyridin-6-yl)pyridin-2-yl]piperazin-1-yl}-2-azaspiro[3.4]octane-2-carboxylate]: the Emax under setting [1] came out at 59.6%. Also, under setting [2], the EC50 was 11.7 nM.
The matching figures for `CCOC(=O)N1CC2(CCC(N3CCN(c4ncccc4-c4cnsn4)CC3)C2)C1` (single isomer, unassigned) [Example 34, ethyl 6-{4-[3-(1,2,5-thiadiazol-3-yl)pyridin-2-yl]piperazin-1-yl}-2-azaspiro[3.4]octane-2-carboxylate]: 96.2% and 1.28 nM.
For the molecule `CCOC(=O)N1CC2(CC[C@@H](N3CCN(c4ncccc4-c4ccncn4)CC3)C2)C1` [Example 46, ethyl (6R)-6-{4-[3-(pyrimidin-4-yl)pyridin-2-yl]piperazin-1-yl}-2-azaspiro[3.4]octane-2-carboxylate], under setting [1], the Emax was determined as 96.6%. Besides, under setting [2], the EC50 is less than 1.75 nM.
For `CCOC(=O)N1CC2(CCC(N3CCN(c4ncccc4-c4cncnc4)CC3)C2)C1` (stereo not drawn) [Example 14, ethyl 6-{4-[3-(pyrimidin-5-yl)pyridin-2-yl]piperazin-1-yl}-2-azaspiro[3.4]octane-2-carboxylate], the Emax under setting [1] was found to be 93.7%. The EC50 under setting [2] is 1.2 nM.
With `CCOC(=O)N1CC2(CCC(N3CCN(c4ncccc4-c4cnc(C#N)cn4)CC3)C2)C1` (single isomer, unassigned) [Example 41, ethyl 6-{4-[3-(5-cyanopyrazin-2-yl)pyridin-2-yl]piperazin-1-yl}-2-azaspiro[3.4]octane-2-carboxylate], under setting [1], the Emax came out at 82.4%. Besides, the EC50 under setting [2] came to 8.52 nM.
Turning to `CCOC(=O)N1CC2(CCC(N3CCN(c4nccnc4OC)CC3)C2)C1` (single isomer, unassigned) [enantiomer of Example 27, ethyl 6-[4-(3-methoxypyrazin-2-yl)piperazin-1-yl]-2-azaspiro[3.4]octane-2-carboxylate], the half-maximal effective concentration (EC50) under setting [3] is more than 10000 nM.
